Measurements as given in PMC10734500, “Anti-virulence and bactericidal activities of Stattic against Shigella sonnei” (Applied and Environmental Microbiology, 2023).

Key:
GalU [1] = biological target: T1, GalU (Shigella sonnei, UniProt Q3Z0V1); experiment: microscale thermophoresis (MST) with purified GalU; supported by malachite green enzyme inhibition ([…] decrease at […]); type: binding
T1 construct: intact galU gene in pET28a (His-tagged)

GalU [2] = biological target: T2, GalU (Klebsiella oxytoca, UniProt A0A163UX09); experiment: microscale thermophoresis (MST) with expressed GalU homolog; type: binding
T2 construct: galUK.o in pET28a
T2 sequence (A0A163UX09 entry or part of it): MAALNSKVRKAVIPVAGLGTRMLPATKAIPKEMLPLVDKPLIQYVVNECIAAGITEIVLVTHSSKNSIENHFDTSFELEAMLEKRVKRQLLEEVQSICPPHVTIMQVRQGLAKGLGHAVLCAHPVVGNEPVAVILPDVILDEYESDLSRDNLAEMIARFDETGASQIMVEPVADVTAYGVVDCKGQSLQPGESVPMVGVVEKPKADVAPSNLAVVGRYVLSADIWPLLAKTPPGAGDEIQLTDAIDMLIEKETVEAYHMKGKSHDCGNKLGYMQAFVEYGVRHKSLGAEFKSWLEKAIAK

T1 sequence (Q3Z0V1 entry or part of it): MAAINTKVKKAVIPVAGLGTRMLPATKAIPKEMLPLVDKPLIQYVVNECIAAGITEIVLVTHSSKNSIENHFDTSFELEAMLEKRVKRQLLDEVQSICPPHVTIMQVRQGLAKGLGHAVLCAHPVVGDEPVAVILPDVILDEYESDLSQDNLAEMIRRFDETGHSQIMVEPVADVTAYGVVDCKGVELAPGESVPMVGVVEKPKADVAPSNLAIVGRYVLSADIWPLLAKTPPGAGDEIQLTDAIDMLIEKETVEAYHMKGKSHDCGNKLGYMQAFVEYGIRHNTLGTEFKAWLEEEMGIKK

Question: With `O=[N+]([O-])c1ccc2c(c1)S(=O)(=O)C=C2` [Stattic] as the molecule, how does the Kd (GalU [1]) read?
Answer: 20 ± 0.35 µM

Question: And the Kd (GalU [2])?
Answer: 50 ± 0.25 µM
